The source of these data is article PMC6984391, “Anion carriers as potential treatments for cystic fibrosis: transport in cystic fibrosis cells, and additivity to channel-targeting drugs” (Chemical Science, 2019).

One test deals with YFP-FRT cells. Nature of the test: YFP fluorescence plate reader assay of anion transport in YFP-FRT cells. As to conditions: for Corrected absolute initial slope |dF/dT|: transporter 50 μM, DMSO 0.5% v/v, DMSO-only subtracted, I^– 100 mM; for anion transport activity in YFP-FRT cells (in words): 50 μM. The class given is cell-based, Fischer rat. Here is the method: We treated YFP-FRT cells with anionophores (final concentration, 1–50 μM) or the vehicle DMSO (0.1–0.5% v/v) by direct addition to the phosphate-buffered saline (PBS) bathing the cells. After incubating YFP-FRT cells with anionophores for 10 minutes at 37 °C, we evaluated anion transport activity by adding I^– (100 mM), using a PBS iodide solution with Cl^– replaced by I^–, and following cell fluorescence for 14 s. FRT cells are relatively impermeable to anions because they lack key ion channels found in epithelial cells, including CFTR.[33] Thus, in the absence of anionophore, iodide cannot enter YFP-FRT cells and no quenching of fluorescence occurs. By contrast, in the presence of an anionophore, iodide influx occurs leading to fluorescence quenching.[29]
To quantify anion transport by different anionophores, we fitted first order exponential functions to the iodide-induced fluorescence decay to measure the initial slope, averaging values over multiple experiments. Fig. 2b and Table 1 summarise the data. Consistent with our previous results,[29] we observed a wide range of anion transport activity. […] We therefore selected for further study 11, 12, 15 and 19.
FRT cells stably expressing the halide sensor YFP-H148Q/I152L6 were generous gifts of AS Verkman (University of California, San Francisco), while CFBE41o- cells7 stably expressing YFP (YFP-CFBE cells) were a generous gift of LJV Galietta (Telethon Institute for […]
Genetics and Medicine). […]
U ml-1 penicillin and […] streptomycin. All cells were incubated at 37 °C in a humidified atmosphere with 5% CO2. […]
(§1) Fluorescence plate reader assay […]
(§2) quenching of YFP fluorescence at 37 °C using a microplate reader following the method of Galietta et al..9 The microplate reader (model: FLUORstar Omega; BMG LABTECH Ltd., Aylesbury, UK) was equipped with a syringe pump and excitation (500 ± 10 nm) and emission (535 ± 15 nm) filters (Chroma Technology GmbH, Olching, Germany). After washing cells twice with PBS (composition (mM): 137 NaCl, 2.7 KCl, 8.1 Na2HPO4, 1.5 KH2PO4, 1 CaCl2 and 0.5 MgCl2, pH 7.40), cells were incubated with test anionophores (1 – 50 µM) or the vehicle (DMSO [0.1 – 0.5% v v-1]) in 40 µl of PBS for 10 – 120 minutes according to the experimental design. Other compounds, including forskolin, ivacaftor and channel inhibitors were added to […]
(§3) the PBS bathing cells 10 minutes prior to PBS iodide addition, whereas UTP was added to cells with the PBS iodide solution. Fluorescence was measured for 14 seconds; 2 seconds before and 12 seconds after injection of 110 µl PBS iodide solution (137 mM Cl- replaced by I-) into each well (to obtain a final concentration of I- of 100 mM).
(§4) We expressed cell fluorescence values (F) relative to the fluorescence value immediately before I- injection (F0), excluding the initial decrease, which likely represents the quenching of extracellular YFP released from cells and signal reduction accompanying the increase in solution volume bathing cells. To quantify anion transport by test anionophores, we determined the initial slope of the fluorescence decay following I - addition by fitting first order exponential functions to the last 12 seconds of each fluorescence recording. In each experim ent, n values represent the mean of two replicates and all treatments were tested at least three times using different microplates. […]
(§5) FRT cells was selected and the cells were perfused with (i) PBS for 5 minutes then (ii) PBS containing I- (10 mM) (made by preparing PBS with 127 mM NaCl to maintain osmolarity) for 5 minutes and finally (iii) PBS for 30 minutes to remove thoroughly I- from the perfusion chamber. YFP-FRT cells were repeatedly treated with I- (10 mM) and then washed with PBS […]
During all interventions, the rate of solution perfusion was 8 – 10 ml min-1; temperature was 37 °C and except for the first

The test system of test [1] is F508del-CFTR-YFP-FRT cells. As to the kind of experiment: Anionophore anion transport in F508del-CFTR-YFP-FRT cells. The class given is cell-based, Fischer rat. As to conditions: for anion transport in control F508del-CFTR-YFP-FRT cells / additivity of anion transport to rescue of F508del-CFTR: 50 μM; for anion transport in control F508del-CFTR-YFP-FRT cells: cells grown at 37 °C; for additivity of anion transport to rescue of F508del-CFTR: 27 °C or lumacaftor rescue; for anion transport when added together with forskolin and ivacaftor: anionophore 50 μM, forskolin 10 μM, ivacaftor 1 μM.
Description: To learn whether anionophores are additive to small molecules that rescue disease-causing CFTR variants, we used FRT cells co-expressing F508del-CFTR, the predominant CF mutation and YFP-H148Q/I152L (F508del-CFTR-YFP-FRT cells).[28] To rescue the plasma membrane expression of F508del-CFTR, we used low temperature or the clinically-licensed CFTR corrector lumacaftor,[38],[39] while to increase its activity, we used the clinically-licensed CFTR potentiator ivacaftor.[40]
FRT cells stably expressing the halide sensor YFP-H148Q/I152L6 were generous gifts of AS Verkman (University of California, San Francisco), while CFBE41o- cells7 stably expressing YFP (YFP-CFBE cells) were a generous gift of LJV Galietta (Telethon Institute for Genetics and Medicine). YFP-FRT cells were cultured as described previously for FRT cells8 except that media contained 10% fetal bovine serum, 2 mM L-glutamine and the selection agent G418 (YFP-FRT cells, 0.5 mg ml-1; WT-CFTR-YFP-FRT cells, 0.75 mg ml-1) or zeocin […]
(F508del-CFTR-YFP-FRT cells, 0.5 mg ml-1). […]
U ml-1 penicillin and 100 mg ml-1 streptomycin. All cells were incubated at 37 °C in a humidified atmosphere with 5% CO2.
For fluorescence microplate reader studies, cells were seeded in 96-well plates and grown in culture media at 37 °C in a humidified atmosphere with 5% CO2 for 3 – 4 days until 90% confluent. To promote the plasma membrane expression of F508del-CFTR, prior to study F508del-YFP-FRT cells were either cultured at 27 °C for 24 h or treated with lumacaftor (3 µM) in YFP-FRT media containing 1% fetal bovine serum at 37 °C for 24 h. […]
as §1, §2, §3, §4, §5
During all interventions, the rate of solution perfusion was 8 – 10 ml min-1; temperature was 37 °C and except for the first 15 minutes of PBS washing, no data were collected between cycles of I- perfusion and PBS […]
For cell fluorescence measurements, we used the Volocity (Improvision) data […]

For `COCCOCCOC(=O)[C@]12CC[C@@H](NC(=O)Nc3ccc(C(F)(F)F)cc3)C[C@@H]1C[C@@H](NC(=O)Nc1ccc(C(F)(F)F)cc1)CC2` [Compound 9], in the test with YFP-FRT cells, the “Corrected absolute initial slope |dF/dT|” value is 1.1 ×10^–3 s^–1.
In the case of `COCCOCCOC(=O)[C@]12CC[C@@H](NC(=O)Nc3cc(C(F)(F)F)cc(C(F)(F)F)c3)C[C@@H]1C[C@@H](NC(=O)Nc1cc(C(F)(F)F)cc(C(F)(F)F)c1)CC2` [Compound 10], the “Corrected absolute initial slope |dF/dT|” value in the test on YFP-FRT cells is reported as 0.7 ×10^–3 s^–1.
With `CCOC(=O)[C@]12CC[C@@H](NC(=S)Nc3ccc([N+](=O)[O-])cc3)C[C@@H]1C[C@@H](NC(=S)Nc1ccc([N+](=O)[O-])cc1)CC2` [Compound 12], in the test on YFP-FRT cells, the “anion transport activity in YFP-FRT cells (in words)” value (shortened to “anion transport activity”) is on record as “notable decays in fluorescence” and the “Corrected absolute initial slope |dF/dT|” value is listed as 17.2 ×10^–3 s^–1. In addition, in test [1], the “anion transport in control F508del-CFTR-YFP-FRT cells” value is on record as “mediated anion transport”; the “additivity of anion transport to rescue of F508del-CFTR” value (“additivity of anion transport” for short) is recorded as “additive”; the “anion transport when added together with forskolin and ivacaftor” value (from here on “anion transport when added together”) is listed as “increased further the amount of anion transport”.
Consider `CCCCCCCCOC(=O)[C@]12CC[C@@H](NC(=S)Nc3ccc([N+](=O)[O-])cc3)C[C@@H]1C[C@@H](NC(=S)Nc1ccc([N+](=O)[O-])cc1)CC2` [Compound 13], for which, in the test with YFP-FRT cells, the “anion transport activity” value is on record as “intermediate levels” and the “Corrected absolute initial slope |dF/dT|” value was 3.3 ×10^–3 s^–1.
In the case of `CCOC(=O)[C@]12CC[C@@H](NC(=S)Nc3cc(C(F)(F)F)cc(C(F)(F)F)c3)C[C@@H]1C[C@@H](NC(=S)Nc1cc(C(F)(F)F)cc(C(F)(F)F)c1)CC2` [Compound 15], in the test with YFP-FRT cells, the “anion transport activity” value is on record as “notable decays in fluorescence” and the “Corrected absolute initial slope |dF/dT|” value is listed as 22.6 ×10^–3 s^–1. In addition, in test [1], the “anion transport in control F508del-CFTR-YFP-FRT cells” value is on record as “mediated anion transport”; the “additivity of anion transport” value is listed as “additive”; the “anion transport when added together” value is reported as “increased further the amount of anion transport”.
`FC(F)(F)c1ccc(NC(=S)NCCN(CCNC(=S)Nc2ccc(C(F)(F)F)cc2)CCNC(=S)Nc2ccc(C(F)(F)F)cc2)cc1` [Compound 18]: the “Corrected absolute initial slope |dF/dT|” value in the test on YFP-FRT cells is given as 1.1 ×10^–3 s^–1.
`FC(F)(F)c1cc(NC(=S)NCCN(CCNC(=S)Nc2cc(C(F)(F)F)cc(C(F)(F)F)c2)CCNC(=S)Nc2cc(C(F)(F)F)cc(C(F)(F)F)c2)cc(C(F)(F)F)c1` [Compound 19]: in the test on YFP-FRT cells, the “anion transport activity” value is recorded as “notable decays in fluorescence” and the “Corrected absolute initial slope |dF/dT|” value is recorded as 12.2 ×10^–3 s^–1. Also, in test [1], the “anion transport in control F508del-CFTR-YFP-FRT cells” value is recorded as “mediated anion transport”; the “additivity of anion transport” value was “additive”; the “anion transport when added together” value is “increased further the amount of anion transport”.
